{"source": "patent US9399649B2", "about": "“Compounds for treating spinal muscular atrophy” (PTC Therapeutics Inc., priority 2012, dated 2016)", "key": {"[1]": {"system": "Smn protein", "test": "Smn protein assay in cultured cells (SMN HTRF)", "format": "cell-based, human", "conditions": "SMA patient fibroblast cells (GM03813), 48 hours; for maximum fold (Fold) increase of Smn protein: 7-point concentration data, relative to vehicle control; for EC1.5x for Smn protein expression: 7-point concentration curve, concentration producing 1.5 times Smn protein vs DMSO vehicle", "outline": "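Smn protein measured by HTRF (anti-SMN d2/kryptate) in lysates of SMA patient fibroblasts after 48 h compound treatment, 7-point 3.16-fold dilutions, triplicates. The 665/620 nm ratio is blank-corrected to ΔF, then divided by the vehicle ΔF to give fold increase.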"}, "[2]": {"system": "full length SMN2 minigene mRNA containing SMN2 exon 7", "test": "SMN2 minigene mRNA splicing RT-qPCR assay in cultured cells", "format": "cell-based, human", "conditions": "Homo sapiens, HEK293-H; HEK293H cells stably transfected with SMN2-A minigene, 24 hours, 7-point concentration curve; concentration giving 1.5-fold full length SMN2 mRNA vs vehicle; read-out: EC1.5x for production of full length SMN2 mRNA", "outline": "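Read-out is minigene FL mRNA (exon 7 included) relative to vehicle, from efficiency-corrected ΔΔCt with GAPDH normalisation. Primers and probe span exon 7, exon 8 and luciferase, so endogenous SMN is not detected. Stable SMN2-A minigene HEK293H cells, 24 h compound exposure at 37 °C, 7-point curve in duplicate.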"}}, "data": [{"smiles": "CN1CCN(c2ccc3cc(-c4ccc5c(c4)OCO5)oc(=O)c3c2)CC1", "note": "[Cpd 15, 3-(1,3-benzodioxol-5-yl)-7-(4-methylpiperazin-1-yl)-1H-isochromen-1-one]", "values": [{"measurement": "maximum fold (Fold) increase of Smn protein", "setting": "[1]", "value": "* (A maximum fold increase of ≦1.2 is indicated by one star (*))"}, {"measurement": "EC (1.5-fold)", "setting": "[2]", "value": "3 to 30", "unit": "µM"}, {"measurement": "melting point", "value": "297 to 299", "unit": "°C"}]}, {"smiles": "COc1ccc(-c2cc3ccc(N4CCN(C)CC4)cc3c(=O)o2)cc1", "note": "[Cpd 25, 3-(4-methoxyphenyl)-7-(4-methylpiperazin-1-yl)-1H-isochromen-1-one]", "values": [{"measurement": "maximum fold (Fold) increase of Smn protein", "setting": "[1]", "value": "* (A maximum fold increase of ≦1.2 is indicated by one star (*))"}, {"measurement": "EC (1.5-fold)", "setting": "[2]", "value": "1 to 3", "unit": "µM"}, {"measurement": "melting point", "value": "166 to 168", "unit": "°C"}]}, {"smiles": "C[C@H]1CN(c2ccc3cc(-c4ccc5c(c4)OCCO5)oc(=O)c3c2)CCN1", "note": "[Cpd 35, 3-(2,3-dihydro-1,4-benzodioxin-6-yl)-7-[(3S)-3-methylpiperazin-1-yl]-1H-isochromen-1-one]", "values": [{"measurement": "maximum fold (Fold) increase of Smn protein", "setting": "[1]", "value": "* (A maximum fold increase of ≦1.2 is indicated by one star (*))"}, {"measurement": "EC (1.5-fold)", "setting": "[2]", "value": "0.3 to 1", "unit": "µM"}, {"measurement": "melting point", "value": "175 to 177", "unit": "°C"}]}, {"smiles": "Cc1cn2cc(-c3cc4ccc(N5CCN(C(C)(C)C)CC5)cc4c(=O)o3)nc2c(C)n1", "note": "[Cpd 83, 7-(4-tert-butylpiperazin-1-yl)-3-(6,8-dimethylimidazo[1,2-a]pyrazin-2-yl)-1H-isochromen-1-one]", "values": [{"measurement": "EC1.5x for Smn protein expression", "setting": "[1]", "value": "*** (an EC1.5× between >0.3 nM and ≦1 nM is indicated by three stars (***))"}, {"measurement": "maximum fold (Fold) increase of Smn protein", "setting": "[1]", "value": "**** (a fold increase between >1.5 and ≦1.65 is indicated by four stars (****))"}, {"measurement": "EC (1.5-fold)", "setting": "[2]", "value": "0.1 to 0.3", "unit": "µM"}, {"measurement": "melting point", "value": "300 to 302", "unit": "°C"}]}, {"smiles": "Cc1cn2cc(-c3cc4ccc(N5CCN6CCC[C@H]6C5)cc4c(=O)o3)cc2c(C)n1", "note": "[Cpd 80, 3-(1,3-dimethylpyrrolo[1,2-a]pyrazin-7-yl)-7-[(8aS)-hexahydropyrrolo[1,2-a]pyrazin-2(1H)-yl]-1H-isochromen-1-one]", "values": [{"measurement": "EC1.5x for Smn protein expression", "setting": "[1]", "value": "**** (an EC1.5×≦0.3 nM is indicated by four stars (****))"}, {"measurement": "maximum fold (Fold) increase of Smn protein", "setting": "[1]", "value": "**** (a fold increase between >1.5 and ≦1.65 is indicated by four stars (****))"}, {"measurement": "EC (1.5-fold)", "setting": "[2]", "value": "≤ 0.1", "unit": "µM"}, {"measurement": "melting point", "value": "220 to 222", "unit": "°C"}]}, {"smiles": "Cc1cn2cc(-c3cc4ccc(C5CCN(C6COC6)CC5)cc4c(=O)o3)nc2c(C)n1", "note": "[Cpd 119, 3-(6,8-dimethylimidazo[1,2-a]pyrazin-2-yl)-7-[1-(oxetan-3-yl)piperidin-4-yl]-1H-isochromen-1-one]", "values": [{"measurement": "EC1.5x for Smn protein expression", "setting": "[1]", "value": "*** (an EC1.5× between >0.3 nM and ≦1 nM is indicated by three stars (***))"}, {"measurement": "maximum fold (Fold) increase of Smn protein", "setting": "[1]", "value": "***** (a fold increase >1.65 is indicated by five stars (*****))"}, {"measurement": "EC (1.5-fold)", "setting": "[2]", "value": "0.1 to 0.3", "unit": "µM"}, {"measurement": "melting point", "value": "225 to 227", "unit": "°C"}]}, {"smiles": "COc1c(F)cc(-c2cc3ccc(N4CCN[C@@H](C)C4)cc3c(=O)o2)cc1F", "note": "[Cpd 49, 3-(3,5-difluoro-4-methoxyphenyl)-7-[(3S)-3-methylpiperazin-1-yl]-1H-isochromen-1-one]", "values": [{"measurement": "maximum fold (Fold) increase of Smn protein", "setting": "[1]", "value": "* (A maximum fold increase of ≦1.2 is indicated by one star (*))"}, {"measurement": "EC (1.5-fold)", "setting": "[2]", "value": "3 to 30", "unit": "µM"}, {"measurement": "melting point", "value": "170 to 173", "unit": "°C"}]}, {"smiles": "C[C@H]1CN(c2ccc3cc(-c4ccc(OC(F)F)cc4)oc(=O)c3c2)CCN1", "note": "[Cpd 54, 3-[4-(difluoromethoxy)phenyl]-7-[(3S)-3-methylpiperazin-1-yl]-1H-isochromen-1-one]", "values": [{"measurement": "maximum fold (Fold) increase of Smn protein", "setting": "[1]", "value": "* (A maximum fold increase of ≦1.2 is indicated by one star (*))"}, {"measurement": "EC (1.5-fold)", "setting": "[2]", "value": "0.3 to 1", "unit": "µM"}, {"measurement": "melting point", "value": "121 to 123", "unit": "°C"}]}, {"smiles": "COc1ccc(-c2cc3ccc(N4CCN[C@@H](C)C4)cc3c(=O)o2)cc1Cl", "note": "[Cpd 46, 3-(3-chloro-4-methoxyphenyl)-7-[(3S)-3-methylpiperazin-1-yl]-1H-isochromen-1-one]", "values": [{"measurement": "EC1.5x for Smn protein expression", "setting": "[1]", "value": "*** (an EC1.5× between >0.3 nM and ≦1 nM is indicated by three stars (***))"}, {"measurement": "maximum fold (Fold) increase of Smn protein", "setting": "[1]", "value": "**** (a fold increase between >1.5 and ≦1.65 is indicated by four stars (****))"}, {"measurement": "EC (1.5-fold)", "setting": "[2]", "value": "0.1 to 0.3", "unit": "µM"}, {"measurement": "melting point", "value": "187 to 189", "unit": "°C"}]}, {"smiles": "Cc1nc2ccc(-c3cc4ccc(N5CCN(C(C)C)CC5)cc4c(=O)o3)cc2s1", "note": "[Cpd 105, 3-(2-methyl-1,3-benzothiazol-6-yl)-7-[4-(propan-2-yl)piperazin-1-yl]-1H-isochromen-1-one]", "values": [{"measurement": "maximum fold (Fold) increase of Smn protein", "setting": "[1]", "value": "** (a fold increase between >1.2 and ≦1.35 is indicated by two stars (**))"}, {"measurement": "EC (1.5-fold)", "setting": "[2]", "value": "0.1 to 0.3", "unit": "µM"}, {"measurement": "melting point", "value": "222 to 228", "unit": "°C"}]}, {"smiles": "Cc1nc(Cl)cn2cc(-c3cc4ccc(N5CCN[C@@H](C)C5)cc4c(=O)o3)nc12", "note": "[Cpd 108, 3-(6-chloro-8-methylimidazo[1,2-a]pyrazin-2-yl)-7-[(3S)-3-methylpiperazin-1-yl]-1H-isochromen-1-one]", "values": [{"measurement": "EC1.5x for Smn protein expression", "setting": "[1]", "value": "**** (an EC1.5×≦0.3 nM is indicated by four stars (****))"}, {"measurement": "maximum fold (Fold) increase of Smn protein", "setting": "[1]", "value": "***** (a fold increase >1.65 is indicated by five stars (*****))"}, {"measurement": "EC (1.5-fold)", "setting": "[2]", "value": "≤ 0.1", "unit": "µM"}, {"measurement": "melting point", "value": "251 to 258", "unit": "°C"}]}, {"smiles": "CCN1CCC(c2ccc3cc(-c4cn5cc(C)nc(C)c5n4)oc(=O)c3c2)CC1", "note": "[Cpd 115, 3-(6,8-dimethylimidazo[1,2-a]pyrazin-2-yl)-7-(1-ethylpiperidin-4-yl)-1H-isochromen-1-one]", "values": [{"measurement": "EC1.5x for Smn protein expression", "setting": "[1]", "value": "**** (an EC1.5×≦0.3 nM is indicated by four stars (****))"}, {"measurement": "maximum fold (Fold) increase of Smn protein", "setting": "[1]", "value": "***** (a fold increase >1.65 is indicated by five stars (*****))"}, {"measurement": "EC (1.5-fold)", "setting": "[2]", "value": "≤ 0.1", "unit": "µM"}, {"measurement": "melting point", "value": "215 to 217", "unit": "°C"}]}, {"smiles": "O=c1oc(-c2ccc3c(c2)OCCO3)cc2ccc(N3CCNCC3)cc12", "note": "[Cpd 13, 3-(2,3-dihydro-1,4-benzodioxin-6-yl)-7-(piperazin-1-yl)-1H-isochromen-1-one]", "values": [{"measurement": "maximum fold (Fold) increase of Smn protein", "setting": "[1]", "value": "* (A maximum fold increase of ≦1.2 is indicated by one star (*))"}, {"measurement": "EC (1.5-fold)", "setting": "[2]", "value": "1 to 3", "unit": "µM"}, {"measurement": "melting point", "value": "253 to 255", "unit": "°C"}]}, {"smiles": "C[C@H]1CN(c2ccc3cc(-c4cn5cccc(Cl)c5n4)oc(=O)c3c2)CCN1", "note": "[Cpd 60, 3-(8-chloroimidazo[1,2-a]pyridin-2-yl)-7-[(3S)-3-methylpiperazin-1-yl]-1H-isochromen-1-one]", "values": [{"measurement": "maximum fold (Fold) increase of Smn protein", "setting": "[1]", "value": "*** (a fold increase between >1.35 and ≦1.5 is indicated by three stars (***))"}, {"measurement": "EC (1.5-fold)", "setting": "[2]", "value": "0.3 to 1", "unit": "µM"}, {"measurement": "melting point", "value": "314 to 316", "unit": "°C"}]}, {"smiles": "O=c1oc(-c2ccccn2)cc2ccc(N3CCNCC3)cc12", "note": "[Cpd 1, 7-(piperazin-1-yl)-3-(pyridin-2-yl)-1H-isochromen-1-one]", "values": [{"measurement": "maximum fold (Fold) increase of Smn protein", "setting": "[1]", "value": "** (a fold increase between >1.2 and ≦1.35 is indicated by two stars (**))"}, {"measurement": "EC (1.5-fold)", "setting": "[2]", "value": "1 to 3", "unit": "µM"}, {"measurement": "melting point", "value": "179 to 181", "unit": "°C"}]}, {"smiles": "Cc1cn2cc(-c3cc4ccc(N5CCN(C)[C@@H](C)C5)cc4c(=O)o3)nc2c(C)n1", "note": "[Cpd 66, 3-(6,8-dimethylimidazo[1,2-a]pyrazin-2-yl)-7-[(3S)-3,4-dimethylpiperazin-1-yl]-1H-isochromen-1-one]", "values": [{"measurement": "EC1.5x for Smn protein expression", "setting": "[1]", "value": "**** (an EC1.5×≦0.3 nM is indicated by four stars (****))"}, {"measurement": "maximum fold (Fold) increase of Smn protein", "setting": "[1]", "value": "***** (a fold increase >1.65 is indicated by five stars (*****))"}, {"measurement": "EC (1.5-fold)", "setting": "[2]", "value": "≤ 0.1", "unit": "µM"}, {"measurement": "melting point", "value": "255 to 256", "unit": "°C"}]}, {"smiles": "CCN1CCN(c2ccc3cc(-c4cn5cc(C)nc(C)c5n4)oc(=O)c3c2)CC1", "note": "[Cpd 73, 3-(6,8-dimethylimidazo[1,2-a]pyrazin-2-yl)-7-(4-ethylpiperazin-1-yl)-1H-isochromen-1-one]", "values": [{"measurement": "EC1.5x for Smn protein expression", "setting": "[1]", "value": "**** (an EC1.5×≦0.3 nM is indicated by four stars (****))"}, {"measurement": "maximum fold (Fold) increase of Smn protein", "setting": "[1]", "value": "***** (a fold increase >1.65 is indicated by five stars (*****))"}, {"measurement": "EC (1.5-fold)", "setting": "[2]", "value": "≤ 0.1", "unit": "µM"}, {"measurement": "melting point", "value": "238 to 240", "unit": "°C"}]}]}
